# Experimental data: patent US20140037574A1, “PHARMACEUTICAL COMPOSITION” (priority 2010, published 2014)
# Biological target: CYP3A4 (Homo sapiens, UniProt P08684)
# Assay: in vitro
# Conditions: for inhibition at 10 min: human, microsomes, pH 7.4; for IC50: HLM, felodipine at its Km as substrate
# Method: G6PDH (40 U/mL) was prepared in 5 mM sodium citrate solution and stored at −20° C. until use. […] The preparation of NRS was completed right before use. It was made such that on addition to the HLM incubation mixture, it contained 2.6 mM NADP', 6.7 mM G6P, […] and 0.8 U/ml G6PDH.
# Substrate (felodipine) solutions were prepared over a range of 0.01-100.0 mM in acetonitrile. […] This was kept on ice until use.
# The reaction was halted by a stop solution made of cooled acetonitrile (−20° C.).
# Supernatants were filtered through […] and analysed by the UPLC method developed in order to quantify the extent of felodipine metabolism. The rate of metabolism, determined as the rate of disappearance of substrate, was profiled against the substrate concentration to determine the enzyme kinetic parameters.
# Felodipine at its determined Km was incubated in HLM as described above except for the addition of inhibitors. […] Supernatants were analysed using the developed UPLC method. […] Another control was incubated without inhibitors to allow for maximum metabolism. […] At higher concentrations, the effect of acetonitrile on enzymatic activity could be significant. It is therefore recommended that not >1% acetonitrile should be included in the incubation mixture. […] The final concentration of acetonitrile in the incubation mixture was 1%.
# Their inhibitory effects were investigated on microsomal metabolism of felodipine. The potencies of the inhibitors were measured as their IC50 values determined through non-linear regression of the percentage inhibition of felodipine metabolism against inhibitor concentration. […] The concentration of felodipine in incubation mixtures containing the various inhibitors and the modelled pre-systemic enzymatic modulators was determined and the extent of metabolism was measured as percentage of control.
# CYP3A4, sequence (P08684 whole entry): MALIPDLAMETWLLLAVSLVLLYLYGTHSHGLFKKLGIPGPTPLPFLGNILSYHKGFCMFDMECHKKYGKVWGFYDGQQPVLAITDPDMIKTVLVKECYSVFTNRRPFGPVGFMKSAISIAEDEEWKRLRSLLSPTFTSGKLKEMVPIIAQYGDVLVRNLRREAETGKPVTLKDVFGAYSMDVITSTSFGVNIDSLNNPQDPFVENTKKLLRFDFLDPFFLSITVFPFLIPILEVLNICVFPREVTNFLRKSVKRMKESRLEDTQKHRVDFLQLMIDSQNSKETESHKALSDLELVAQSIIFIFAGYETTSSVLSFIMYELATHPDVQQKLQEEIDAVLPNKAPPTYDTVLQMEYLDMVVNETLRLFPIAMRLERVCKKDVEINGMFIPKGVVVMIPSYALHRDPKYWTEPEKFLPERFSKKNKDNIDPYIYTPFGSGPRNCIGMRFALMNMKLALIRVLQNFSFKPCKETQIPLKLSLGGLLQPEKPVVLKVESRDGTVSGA
SMILES,inhibition at 10 min [%],IC50 (IC50 (mg/mL)) [µM],"IC50 (IC50 (μM), Table 1) [µM]"
"O=C1C[C@@H](c2ccc(O)cc2)Oc2cc(O)cc(O)c21 [Naringenin, naringenin]",95,–,–
"C[C@@H]1O[C@@H](O[C@H]2[C@H](Oc3cc(O)c4c(c3)O[C@H](c3ccc(O)cc3)CC4=O)O[C@H](CO)[C@@H](O)[C@@H]2O)[C@H](O)[C@H](O)[C@H]1O [Naringin, naringin]",98,178,178
"O=c1c(O)c(-c2ccc(O)c(O)c2)oc2cc(O)cc(O)c12 [Quercetin, quercetin]",98,–,–
